Measured values taken from patent US7214707B2, “Dimeric compounds and their use as anti-viral agents” (Biota Scientific Management Pty Ltd., priority 2001, dated 2007).
Values after ≈ are worked out from the molar mass of the structure shown. Structures can show the parent of a compound that is named as a salt. Where two headings read alike, the source gives them in different places.

What was measured:
[1] = tested on: A/New Caledonia/20/99 BVLV008 (H1N1); experiment: Plaque reduction assay (PRA) in MDCK cells; format: cell-based; conditions: Influenza A virus, read-out: EC50 PRA A/New
[2] = tested on: A/Victoria/3/75 BVLV017 (H3N2); experiment: Plaque reduction assay (PRA) in MDCK cells; format: cell-based; conditions: Influenza A virus, read-out: EC50 PRA A/Vic
B/Hong Kong/5/72 BVLV012 = experiment: Plaque reduction assay (PRA) in MDCK cells; format: cell-based, influenza virus; conditions: read-out: EC50 PRA B/HongK
[3] = tested on: A/Panama/2007/99 BVLV008 (H3N2); experiment: Plaque reduction assay (PRA) in MDCK cells; format: cell-based; conditions: Influenza A virus, read-out: EC50 PRA A/Pan
[4] = tested on: B/Yamanashi/166/98 BVLV007; experiment: Plaque reduction assay (PRA) in MDCK cells; format: cell-based; conditions: influenza B virus, read-out: EC50 PRA B/Yam, reduces plaque numbers by 50%, MDCK cells
Influenza B/Harbin/7/95 = experiment: Cytopathic effect (CPE) assay in MDCK cells, MTT readout; format: cell-based, influenza virus; conditions: concentration inhibiting CPE by 50%, up to 72 hours
Influenza A/Sydney/5/97 = experiment: as above; format: cell-based, influenza virus; conditions: concentration inhibiting CPE by 50%, up to 72 hours
[5] = tested on: A/Bayem/7/95 BVL006 (H1N1); experiment: Plaque reduction assay (PRA) in MDCK cells; format: cell-based; conditions: Influenza A virus, read-out: EC50 PRA A/Bay
[6] = tested on: A/Sydney/5/97 BVLV015 (H3N2); experiment: Plaque reduction assay (PRA) in MDCK cells; format: cell-based; conditions: Influenza A virus, read-out: EC50 PRA A/Syd
[7] = Rat lung retention after intra-tracheal dosing (long duration of action); conditions: in vivo
Protocol: Rodents are anaesthetised and dosed with compound of interest by the intra-tracheal route at a dose volume of 0.8 ml/kg. The rodent is then held in the vertical position until full recovery is achieved. […] Any analytical method suitable for detection of this type of compound may be used. The time at which levels of compound fall below the sensitivity of the analytical techniques identified will determine the residency time of the compound in lung tissue.
Please note that all experiments included a co-dosed internal standard, namely compound 3 of International Patent Publication No. WO 02/20514, to permit comparison. The data are expressed as a ratio with respect to this compound, the structure of which is shown below.
The data for compound A is included for comparison purposes.

B/Harbin/7/95 BVLV008 = experiment: Plaque reduction assay (PRA) in MDCK cells; format: cell-based, influenza virus; conditions: read-out: EC50 PRA B/Harb
A/WSN/33 BVLV09 (H1N1) = experiment: Plaque reduction assay (PRA) in MDCK cells; format: cell-based; conditions: Influenza A virus, read-out: EC50 PRA A/WSN
[8] = reduces plaque numbers by 50%, MDCK cells

## CCOC(=O)C1=C[C@@H](OC(CC)CC)[C@H](NC(C)=O)[C@@H](N)C1 [Oseltamivir]
[1]; [8]
  EC50: 0.23 ng/mL (≈ 0.736 nM)
[2]; [8]
  EC50: 0.11 ng/mL (≈ 0.352 nM)
B/Hong Kong/5/72 BVLV012
  EC50: 0.032 µg/mL (≈ 102 nM)
[3]; [8]
  EC50: 0.3 ng/mL (≈ 0.96 nM)
[4]
  EC50: 0.7 ng/mL (≈ 2.24 nM)

## CC(=O)N[C@H]1[C@H]([C@H](OC(=O)NCc2ccc(S(=O)(=O)c3ccc(CNC(=O)O[C@@H]([C@@H]4OC(C(=O)O)=C[C@H](NC(=N)N)[C@H]4NC(C)=O)[C@H](O)CO)cc3)cc2)[C@H](O)CO)OC(C(=O)O)=C[C@@H]1NC(=N)N [Example 4, (2R,3R,4S)-3-(acetylamino)-2-[(1R,2R)-1-({[({4-[(4-{[({[(1R,2R)-1((2R,3R,4S)-3-(acetylamino)-4-{[amino(imino)methyl]amino}-6-carboxy-3,4-dihydro-2H-pyran-2-yl)-2,3-dihydroxypropyl]oxy}-carbonyl)amino]methyl}phenyl)sulfonyl]phenyl}methyl)amino]carbonyl}oxy)-2,3-dihydroxypropyl]-4-{[amino(imino)methyl]amino}-3,4-dihydro-2H-pyran-6-carboxylic Acid]
Influenza B/Harbin/7/95
  ID50 B/Harbin/7/95: <0.05 ng/mL
Influenza A/Sydney/5/97
  ID50 A/Sydney/5/97: >0.100 µg/mL

## CC(=O)N[C@H]1[C@H]([C@H](OC(=O)NCc2ccc(-c3ccc(CNC(=O)O[C@@H]([C@@H]4OC(C(=O)O)=C[C@H](NC(=N)N)[C@H]4NC(C)=O)[C@H](O)CO)cc3)cc2)[C@H](O)CO)OC(C(=O)O)=C[C@@H]1NC(=N)N [Example 9, (2R,3R,4S)-3-(acetylamino)-2-{(1R,2R)-1-[({[(4′-{[({[(1R,2R)-1-((2R,3R,4S)-3-(acetylamino)-4-{[amino(imino)methyl]amino}-6-carboxy-3,4-dihydro-2H-pyran-2-yl)-2,3-dihydroxypropyl]oxy}carbonyl)amino]methyl}-1,1′-biphenyl-4-yl)methyl]amino}carbonyl)oxy]-2,3-dihydroxypropyl}-4-{[amino(imino)methyl]amino}-3,4-dihydro-2H-pyran-6-carboxylic Acid bis TFA Salt]
[1]; [8]
  EC50: 0.003 ng/mL
Influenza B/Harbin/7/95
  ID50 B/Harbin/7/95: 0.08 ng/mL
[5]; H1N1, reduces plaque numbers by 50%, MDCK cells
  EC50: > 0.001 µg/mL
[6]; [8]
  EC50: 3.7 ng/mL
Influenza A/Sydney/5/97
  ID50 A/Sydney/5/97: >0.100 µg/mL
B/Hong Kong/5/72 BVLV012
  EC50: 0.00023 µg/mL
[4]
  EC50: 0.006 ng/mL
[7]; 0.1 mg/kg, 48 h
  Ratio Mean (lung) (cmpd)/PCT AU01/01128 compound 3: 0.52
[7]; 0.1 mg/kg, 168 h
  Ratio Mean (lung) (cmpd)/PCT AU01/01128 compound 3: 0.45
[7]; 0.1 mg/kg, Mean (cmpd) ng/g
  concentration at 48 h: 1400 ng/g
  concentration at 168 h: 835 ng/g

## CC(=O)N[C@H]1[C@H]([C@H](OC(=O)NCCc2cccc(CCNC(=O)O[C@@H]([C@@H]3OC(C(=O)O)=C[C@H](NC(=N)N)[C@H]3NC(C)=O)[C@H](O)CO)c2)[C@H](O)CO)OC(C(=O)O)=C[C@@H]1NC(=N)N [Example 1, (2R,3R,4S)-3-(acetylamino)-2-{(1R,2R)-1-[({[2-(3-{2-[({[(1R,2R)-1-((2R,3R,4S)-3-(acetylamino)-4-{[amino(imino)methyl]amino}-6-carboxy-3,4-dihydro-2H-pyran-2-yl)-2,3-dihydroxypropyl]oxy}carbonyl)amino]ethyl}phenyl)ethyl]amino}carbonyl)oxy]-2,3-dihydroxypropyl}-4-{[amino(imino)methyl]amino}-3,4-dihydro-2H-pyran-6-carboxylic Acid]
Influenza B/Harbin/7/95
  ID50 B/Harbin/7/95: 0.2 ng/mL (≈ 0.227 nM)
Influenza A/Sydney/5/97
  ID50 A/Sydney/5/97: 0.084 µg/mL (≈ 95.4 nM)

## NC12CC3CC(CC(C3)C1)C2 [Amantadine]
[1]; [8]
  EC50: 11 ng/mL (≈ 72.7 nM)
[2]; [8]
  EC50: 220 ng/mL (≈ 1450 nM)
B/Hong Kong/5/72 BVLV012
  EC50: > 10 µg/mL
[3]; [8]
  EC50: 157 ng/mL (≈ 1040 nM)

## CC(=O)N[C@H]1[C@H]([C@H](OC(=O)NCCc2ccc(CCNC(=O)O[C@@H]([C@@H]3OC(C(=O)O)=C[C@H](NC(=N)N)[C@H]3NC(C)=O)[C@H](O)CO)cc2)[C@H](O)CO)OC(C(=O)O)=C[C@@H]1NC(=N)N [Example 2, (2R,3R,4S)-3-(acetylamino)-2-{(1R,2R)-1-[({[2-(4-{2-[({[(1R,2R)-1-((2R,3R,4S)-3-(acetylamino)-4-{[amino(imino)methyl]amino}-6-carboxy-3,4-dihydro-2H-pyran-2-yl)-2,3-dihydroxypropyl]oxy}carbonyl)amino]ethyl}phenyl)ethyl]amino}carbonyl)oxy]-2,3-dihydroxypropyl}-4-{[amino(imino)methyl]amino}-3,4-dihydro-2H-pyran-6-carboxylic Acid]
[7]; 0.1 mg/kg, 48 h
  Ratio Mean (lung) (cmpd)/PCT AU01/01128 compound 3: 0.44
[7]; 0.1 mg/kg, 168 h
  Ratio Mean (lung) (cmpd)/PCT AU01/01128 compound 3: 0.34
[7]; 0.1 mg/kg, (cmpd) ng/g
  concentration at 48 h: 740 ng/g
[7]; 0.1 mg/kg, Mean (cmpd) ng/g
  concentration at 48 h: 603 ng/g
  concentration at 168 h: 259 ng/g

## CC(=O)N[C@H]1[C@H]([C@H](OC(=O)Nc2ccc(Cc3ccc(NC(=O)O[C@@H]([C@@H]4OC(C(=O)O)=C[C@H](NC(=N)N)[C@H]4NC(C)=O)[C@H](O)CO)cc3)cc2)[C@H](O)CO)OC(C(=O)O)=C[C@@H]1NC(=N)N [Example 8, (2R,3R,4S)-3-(acetylamino)-2-{(1R,2R)-1-[({[4-({4-[({[(1R,2R)-1-((2R,3R,4S)-3-(acetylamino)-4-{[amino(imino)methyl]amino}-6-carboxy-3,4-dihydro-2H-pyran-2-yl)-2,3-dihydroxypropyl]oxy}carbonyl)amino]phenyl}methyl)phenyl]amino}carbonyl)oxy]-2,3-dihydroxypropyl}-4-{[amino(imino)methyl]amino}-3,4-dihydro-2H-pyran-6-carboxylic Acid bis TFA Salt]
B/Harbin/7/95 BVLV008
  EC50: < 0.0001 ng/mL
[1]; [8]
  EC50: 0.0001 ng/mL
Influenza B/Harbin/7/95
  ID50 B/Harbin/7/95: <0.05 ng/mL
[2]; [8]
  EC50: 0.003 ng/mL
Influenza A/Sydney/5/97
  ID50 A/Sydney/5/97: 0.013 µg/mL
[4]
  EC50: 0.02 ng/mL
[7]; 0.4 mg/kg, 48 h
  Ratio Mean (lung) (cmpd)/PCT AU01/01128 compound 3: 1.05
[7]; 0.4 mg/kg, 168 h
  (lung): 3571 ng/g
  Ratio Mean (lung) (cmpd)/PCT AU01/01128 compound 3: 2.28
[7]; 0.4 mg/kg, (lung) ng/g
  concentration at 48 h: 3800 ng/g
  concentration at 168 h: 3230 ng/g
[7]; 0.4 mg/kg, Mean (lung) ng/g
  concentration at 48 h: 3250 ng/g
  concentration at 168 h: 3400 ng/g

## CC(=O)N[C@H]1[C@H]([C@H](O)[C@H](O)CO)OC(C(=O)O)=C[C@@H]1N=C(N)N [Compound A, 4-guanidino-2-deoxy-2,3-dehydro-N-acetylneuraminic acid, reference compound]
B/Harbin/7/95 BVLV008
  EC50: 0.19 ng/mL (≈ 0.572 nM)
[1]
  EC50: 0.27 ng/mL (≈ 0.812 nM)
A/WSN/33 BVLV09 (H1N1)
  EC50: 0.056 µg/mL (≈ 169 nM)
[2]
  EC50: 5.5 ng/mL (≈ 16.6 nM)
[5]; H1N1, MDCK
  EC50: 0.035 µg/mL (≈ 105 nM)
[6]
  EC50: 2.4 ng/mL (≈ 7.22 nM)
B/Hong Kong/5/72 BVLV012
  EC50: 0.021 µg/mL (≈ 63.2 nM)
[3]
  EC50: 2.7 ng/mL (≈ 8.12 nM)
[7]; 0.1 mg/kg, 48 h
  Ratio Mean (lung) (cmpd)/PCT AU01/01128 compound 3: 0.26
[7]; 0.1 mg/kg, 168 h
  Ratio Mean (lung) (cmpd)/PCT AU01/01128 compound 3: 0.08
